Experimental data from patent US20240009195A1, “NOVEL USES” (INTRA-CELLULAR THERAPIES, INC., priority 2020, published 2024).

How the values were obtained:
hPDE1A = hPDE1A (Homo sapiens, UniProt P54750); assay: IMAP PDE assay, selectivity table; format: biochemical
Excerpt: (§1) The generation of GMP-fluorescein from cGMP-fluorescein can be quantitated, using, for example, the IMAP (Molecular Devices, Sunnyvale, CA) immobilized-metal affinity particle reagent.
(§2) Briefly, the IMAP reagent binds with high affinity to the free 5′-phosphate that is found in GMP-fluorescein and not in cGMP-fluorescein. The resulting GMP-fluorescein-IMAP complex is large relative to cGMP-fluorescein. Small fluorophores that are bound up in a large, slowly tumbling, complex can be distinguished from unbound fluorophores, because the photons emitted as they fluoresce retain the same polarity as the photons used to excite the fluorescence.
(§3) In the phosphodiesterase assay, cGMP-fluorescein, which cannot be bound to IMAP, and therefore retains little fluorescence polarization, is converted to GMP-fluorescein, which, when bound to IMAP, yields a large increase in fluorescence polarization (Amp). Inhibition of phosphodiesterase, therefore, is detected as a decrease in Amp. […]
(§4) The reaction is incubated in dark at room temperature for 15 min. […] The plate is incubated at room temperature for 1 hour to allow IMAP binding to proceed to completion, and then placed in an Envision multimode microplate reader (PerkinElmer, Shelton, CT) to measure the fluorescence polarization (Amp).
(§5) A decrease in GMP concentration, measured as decreased Amp, is indicative of inhibition of PDE activity.

hPDE1C = hPDE1C (Homo sapiens, UniProt Q14123); assay: IMAP PDE assay, selectivity table; format: biochemical
Excerpt: as §1, §2, §3, §4, §5

[1] = test system: guinea pig cardiomyocytes; assay: Glucagon co-administration with PDE1 inhibitor in guinea pig cardiomyocytes (sarcomere shortening, Ca2+ transients); format: cell-based; details: glucagon (1 μM) plus Compound 1 (1 μM) vs glucagon alone, 37° C., pacing at 1 Hz
Method: Studies were carried out to test the effect of glucagon co-administration with a PDE1 inhibitor in guinea pig cardiomyocytes. Myocytes were isolated according to Liu et al., Circulation Research, 2014. A thoracotomy was performed on anesthetized guinea pigs to remove the heart. The aorta was cannulated on a Langendorf apparatus fitted with a heating jacket circulating water at 37° C., and were retrogradely perfused for 5 minutes at 8 ml/min. The perfusate was switched to a Tyrode's solution containing […] (Worthington) and protease type 14 (Sigma-Aldrich) for 7-9 minutes. The solution was switched to a modified Kraft-Bruhe (KB) buffer for 5 minutes, before being minced and filtered to yield single cells. Isolated cells were incubated in a modified KB buffer (Isenberg et al., Pflugers Arch, 1982] for an hour, before being placed in supplemented M199 ACCIT medium. (Ellingsen et al., American J Physiology, 1993) Cells were kept at room temperature, and used within 7 hours.
Changes in cell sarcomere shortening and Ca^2+ transients were measured using a customized IonOptix system previously described. (Hashimoto et al., Circulation, 2018). Briefly, cells were loaded using 1 μM Fura-2 for 15 minutes, and washed out for at least 20 minutes. Baseline recording was made in Tyrode's buffer described above, with 0.1% DMSO. […]

hPDE1C, sequence (Q14123 whole entry): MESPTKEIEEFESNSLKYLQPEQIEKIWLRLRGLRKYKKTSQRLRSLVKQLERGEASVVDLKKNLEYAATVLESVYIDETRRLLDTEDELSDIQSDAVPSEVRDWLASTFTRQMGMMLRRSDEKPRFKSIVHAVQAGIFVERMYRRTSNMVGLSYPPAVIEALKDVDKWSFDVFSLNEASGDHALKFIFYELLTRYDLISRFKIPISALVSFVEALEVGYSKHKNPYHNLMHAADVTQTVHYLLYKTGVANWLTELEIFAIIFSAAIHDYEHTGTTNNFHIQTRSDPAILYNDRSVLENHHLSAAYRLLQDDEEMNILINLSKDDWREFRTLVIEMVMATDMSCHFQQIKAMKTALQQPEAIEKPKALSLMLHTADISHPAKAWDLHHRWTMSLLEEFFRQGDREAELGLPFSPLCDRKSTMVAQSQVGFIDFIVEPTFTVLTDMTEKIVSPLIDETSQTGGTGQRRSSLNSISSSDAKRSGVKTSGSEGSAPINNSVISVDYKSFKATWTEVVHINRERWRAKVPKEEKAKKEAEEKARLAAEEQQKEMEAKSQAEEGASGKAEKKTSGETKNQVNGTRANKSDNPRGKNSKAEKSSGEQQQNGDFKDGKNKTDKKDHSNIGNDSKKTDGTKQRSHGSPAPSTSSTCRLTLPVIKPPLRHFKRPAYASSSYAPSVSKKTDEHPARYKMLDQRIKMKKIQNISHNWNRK
hPDE1A, sequence (P54750 whole entry): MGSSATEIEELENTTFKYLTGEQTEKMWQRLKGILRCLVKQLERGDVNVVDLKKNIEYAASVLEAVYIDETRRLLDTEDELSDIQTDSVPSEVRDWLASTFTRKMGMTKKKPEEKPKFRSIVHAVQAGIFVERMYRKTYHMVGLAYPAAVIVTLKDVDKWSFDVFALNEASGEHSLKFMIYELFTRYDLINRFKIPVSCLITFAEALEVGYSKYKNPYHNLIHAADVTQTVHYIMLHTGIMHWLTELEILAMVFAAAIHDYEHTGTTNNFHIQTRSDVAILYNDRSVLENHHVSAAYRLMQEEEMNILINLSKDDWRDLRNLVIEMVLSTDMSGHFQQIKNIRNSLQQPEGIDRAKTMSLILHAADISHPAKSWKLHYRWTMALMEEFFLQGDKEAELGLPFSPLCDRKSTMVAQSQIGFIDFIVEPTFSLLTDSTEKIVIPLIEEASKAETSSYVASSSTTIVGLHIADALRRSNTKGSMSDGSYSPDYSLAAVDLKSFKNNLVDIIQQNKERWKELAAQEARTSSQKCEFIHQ

For `CN1C(=O)c2c(nn(Cc3ccc(-c4cccc(F)n4)cc3)c2Nc2ccccc2)N2C1=N[C@@H]1CCC[C@@H]12` [Compound 1], the IC50 (hPDE1A) was 27 pM, the IC50 (hPDE1C) was 37 pM and the “change in cell sarcomere shortening” value ([1]; FIG. 1) was “increased the beneficial effects of glucagon”. For the same molecule, the “peak Ca2+ transient amplitude” value ([1]; FIG. 2) was “increased the beneficial effects of glucagon”.
